# Measured values: PubChem BioAssay AID1320 (NMMLSC, 2008)
# The source made the active and inactive calls. How the calls were made is not given here.
# Biological target: Bcl-2-related protein A1 (Homo sapiens) (UniProt Q16548)
# Experiment: inhibitors of Bim binding to Bfl-1, dose response, biochemical, multiplexed, bead-based flow cytometry (AID 1320); on percent span (inhibition): test concentration not given here
# Settings: Bim peptide-Bfl-1 binding, fluorescence
# Chain of Bcl-2-related protein A1 (Homo sapiens) (Q16548 whole entry, looked up): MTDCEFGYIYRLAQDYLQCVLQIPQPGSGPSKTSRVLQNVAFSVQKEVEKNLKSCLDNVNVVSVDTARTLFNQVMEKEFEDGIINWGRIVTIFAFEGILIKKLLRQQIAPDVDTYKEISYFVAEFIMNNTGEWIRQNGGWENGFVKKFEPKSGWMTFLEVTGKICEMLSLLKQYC
row,Compound,EC50
1,Cc1c(NC2=C(Cl)C(=O)N(c3ccccc3Cl)C2=O)c(=O)n(-c2ccccc2)n1C,6.04 µM
2,CC1CC2=C(NC(=S)NC2c2cccc(F)c2)/C(=C/c2cccc(F)c2)C1 (centres undefined),inactive

# Same assay, conditions: Bim peptide-Bfl-1 binding, fluorescence, hits give high values
row,Compound,percent span (inhibition)
1,CN1C2C=C3C(C#N)=C(N)C(C#N)(C#N)[C@@H](c4ccsc4)[C@@H]3C1CC2 (some centres undefined),inactive
2,Cc1[nH]c2ccccc2c1C(=O)COC(=O)c1c(-c2c(F)cccc2Cl)noc1C,inactive
3,CC(C(=O)Nc1cc([N+](=O)[O-])ccc1Cl)N1CCN(c2ccc(O)cc2)CC1 (centres undefined),inactive
4,Cc1cccc(-n2c(O)c(/C=N/N3CCOCC3)c(=O)[nH]c2=S)c1,inactive
5,O=C(CSc1ccc2nnc(-c3ccccn3)n2n1)Nc1nccs1,inactive
6,CC(NCc1ccc(-c2ccccc2)cc1)C(O)c1ccccc1 (centres undefined),inactive
7,COc1ccccc1Cn1nnc2c(=O)[nH]c(C3CCN(C(=O)c4ccc(C)cc4)CC3)nc21,inactive
8,OCCC1CN(Cc2nc3c(s2)CCCC3)CCN1Cc1ccsc1 (centres undefined),inactive
9,COc1c(C)cc(Br)cc1C(=O)Nc1ccc(S(N)(=O)=O)cc1,inactive
10,CCCc1nnc2n1N=C(c1ccc(-c3cc(Cl)ccc3Cl)o1)CS2,inactive
11,COc1cc(/C=N/NC(=O)c2ccc([N+](=O)[O-])cc2Cl)cc(Br)c1O,inactive
12,CC1(C(=O)N(CC(=O)NC2CCCC2)Cc2ccco2)CC(=O)N=C2C=CC=CN21 (centres undefined),inactive
13,O=C(c1cnccn1)N1CCN(c2ccccc2F)CC1,inactive
14,O=C1/C(=C/c2cccs2)Sc2ccccc21,inactive
15,COc1ccccc1Oc1ccc2c(c1)C(=O)N(c1ccccc1)C2=O,inactive
16,O=C(Cc1ccccc1)N/N=C/c1cccn1-c1ccc([N+](=O)[O-])cc1,inactive
17,Cc1sc(NC(=O)Cn2cnnn2)nc1-c1ccc(Cl)cc1,inactive
18,Cn1cccc1CC(=O)N/N=C\c1ccccc1,inactive
19,CCn1cc(C=C2C(=O)c3ccccc3C2=O)c2ccccc21,inactive
20,O=C1NCCN1C(=O)N(c1ccccc1)c1ccccc1,inactive
21,COc1cc2[nH]c(=S)nc(NCC3CCCO3)c2cc1OC (centres undefined),inactive
22,COc1ccc(CC(=O)Nc2ccccc2Oc2ccccc2)cc1,inactive
23,Cc1ccc(C(=O)NNC(=O)c2ccc3ncccc3c2)cc1,inactive
24,O=C(CCc1ccccc1)N1CCN(c2ccccn2)CC1,inactive
25,OC(CNC1CCCCC1)COCCOc1ccc(Br)cc1 (centres undefined),inactive

row,Compound,percent span (inhibition)
1,CN(C)c1cccc(NC(=O)C2(C)CC2(Cl)Cl)c1 (centres undefined),inactive
2,O=C(c1cc(=O)c2ccccc2o1)N1CCN(c2ccccc2F)CC1,inactive
3,COc1ccc(CN(CC(=O)NC2CCCC2)C(=O)CCC(=O)Nc2cc(C)on2)cc1,inactive
4,CN(CC(=O)O/N=C(\N)c1ccc([N+](=O)[O-])cc1)S(=O)(=O)c1ccccc1,inactive
5,CCN1CCN(c2cc(C)c3cc(NC(=S)N4CCCCC4)ccc3n2)CC1,inactive
6,c1ccc(-c2nc(N3CCCCCC3)c3ccccc3n2)nc1,inactive
7,O=c1nc2c(O)cccn2c2c1c(=O)[nH]c1ccccc12,inactive
8,Cn1c(=O)c2c(nc(NCCO)n2CCc2ccccc2)n(C)c1=O,inactive
9,CNc1ccc(Br)cc(C(=O)/C=C/c2ccc(OC)cc2OC)c1=O,inactive
10,CCc1nnc(NS(=O)(=O)c2ccc(N=CC3=C(O)CC(C)(C)CC3=O)cc2)s1,inactive
11,Nc1ccc(Nc2nc(-c3ccncc3)cs2)cc1,inactive
12,Cc1ccc(-c2cc(-c3ccccc3)c(C#N)c(N)n2)o1,inactive
13,CCCn1c(N2CCN(C)CC2)nc2c1c(=O)[nH]c(=O)n2C,inactive
14,CCNCc1cc(Br)c(OCC(=O)Nc2ccccc2)c(OC)c1,inactive
15,Cc1cc(-c2csc(N)n2)c(C)n1C,inactive
16,O=S1(=O)N=C(N(CCO)/N=C/c2ccccc2)c2ccccc21,inactive
17,COc1ccc(CC(=O)Nc2ccc3nc(C)sc3c2)cc1OC,inactive
18,O=C(Cc1ccccc1)OCCNC(=O)c1cccnc1,inactive
19,COc1ccc(NC(=O)C2=C(C)NC(=O)NC2c2cccc(OC)c2OC)c(OC)c1 (centres undefined),inactive
20,O=C(NCCCN1CCN(CCCNC(=O)c2cc([N+](=O)[O-])ccc2Cl)CC1)c1cc([N+](=O)[O-])ccc1Cl,inactive
21,CCOc1ccc(C(=O)Nc2nnc(NC(=S)Nc3ccccc3)s2)cc1,inactive
22,CCOC(=O)C1(Cc2cccc(OC)c2)CCN(Cc2cccc(OC)c2OC)CC1,inactive
23,Cc1ccc(-c2cc(C(=O)OCC(=O)N(C)C3CCS(=O)(=O)C3)c3ccccc3n2)o1 (centres undefined),inactive
24,O=C(NCCN1CCOCC1)c1cc(Cl)ccc1[N+](=O)[O-],inactive
25,O=C(NCc1ccccc1)C(=O)Nc1nc(C23CC4CC(CC(C4)C2)C3)cs1,inactive

row,Compound,percent span (inhibition)
1,CCN1CCN(c2cc(C)c3cc(NC(=S)N4CCN(c5ccccc5)CC4)ccc3n2)CC1,inactive
2,CCOc1ccccc1-n1c(=O)c2ccccc2c2ccccc2c1=O,inactive
3,CN(C)CCNC(=O)C(=O)C1C(=O)Nc2ccccc21 (centres undefined),inactive
4,Cn1c(=O)[nH]c(=O)c2c1nc(N1CCOCC1)n2CCSc1nc2ccccc2[nH]1,inactive
5,Cc1cc(C)c2c(N)c3cccc(C)c3nc2n1,inactive
6,Cc1occc1C(=O)NNC(=S)NCc1ccccc1,inactive
7,COc1cc(/C=C2\S/C(=N/S(=O)(=O)c3ccc(C)cc3)NC2=O)c([N+](=O)[O-])cc1OC,inactive
8,COc1cc(NC(=O)c2ccc3c(c2)OCO3)ccc1NC(=O)c1ccco1,inactive
9,O=C(O)CC1S/C(=N/N=C/C=C/c2ccccc2[N+](=O)[O-])NC1=O (centres undefined),inactive
10,O=C(Nc1ccccn1)c1cc2ccccc2o1,inactive
11,Cc1ccc(/C=C2\CCCC3=C2NC(=S)NC3c2ccc(C)cc2)cc1 (centres undefined),inactive
12,Cc1ccc(-n2nc(C)c(C(=O)O)n2)c(C)c1,inactive
13,COc1cc2[nH]c(=S)nc(NCCCOC(C)C)c2cc1OC,inactive
14,Cn1c(N)c(C(=O)COC(=O)c2cc(-c3ccco3)nc3ccccc23)c(=O)n(C)c1=O,inactive
15,O=C(Nc1cccc(Cl)c1)Nc1ccnc(-c2cccnc2)n1,inactive
16,COc1ccc(C2=Nn3c(nnc3-c3ccccn3)SC2)cc1OC,inactive
17,COc1ccc(NC(=O)c2sccc2SCc2cccc(C(F)(F)F)c2)cc1,inactive
18,CCN(CC)c1ccc(-c2nn3c(-c4cccnc4)nnc3s2)cc1,inactive
19,COc1ccc(-n2c(SCC(=O)Nc3ccc(C(=O)O)cc3)nnc2-c2cccs2)cc1,inactive
20,CN(/N=C/c1ccncc1)C1=NS(=O)(=O)c2ccccc21,inactive
21,COc1cccc(/C=C2/SC(=O)N(C)C2=O)c1OCc1ccc(C(=O)O)cc1,inactive
22,CCOc1ccc(N2C(=O)C(Cl)=C(Nc3ccccc3O)C2=O)cc1,inactive
23,CN(CCCOc1ccccc1Br)Cc1ccccc1,inactive
24,Cc1[nH]nc(SCC(=O)NCc2ccc(F)cc2)c1[N+](=O)[O-],inactive
25,COc1ccc(NC(=O)c2cc(-c3ccc(C)o3)nc3ccccc23)cc1OC,inactive

row,Compound,percent span (inhibition)
1,COc1ccc(C2(NC(C)=O)CCN(C(=O)c3ccco3)CC2)cc1,inactive
2,Nc1ccc(-c2cn3cccnc3n2)cc1,inactive
3,C/C(=N\NC(=O)COc1ccc(C(C)(C)C)cc1)c1ccc2c(c1)OCCO2,inactive
4,Cc1ccc(-n2[nH]c(C)c(/C=N/Nc3ccc([N+](=O)[O-])cc3[N+](=O)[O-])c2=O)cc1C,inactive
5,OC(COc1ccc2cc(Br)ccc2c1)CN1CCOCC1 (centres undefined),inactive
6,CC1Nc2ccccc2C(=O)N1NS(C)(=O)=O (centres undefined),inactive
7,Cc1ccc(S(=O)(=O)N(C)CC(=O)N2CCc3ccccc32)cc1,inactive
8,O=C(Nc1cccc(Cl)c1)Nc1ccc(Cl)cn1,inactive
9,O=C(N/N=C/c1cccnc1)c1cccc(S(=O)(=O)N2CCCC2)c1,inactive
10,CCn1c(C)c(/C=N/Nc2nc3ccccc3s2)c2ccccc21,inactive
11,S=C(NCCc1ccccc1)NCCc1ccccc1,inactive
12,Cc1ccc(Nc2nc(-c3ccccc3)c(CC(=O)O)s2)cc1,inactive
13,Clc1ccc2c(N/N=C/c3cccc(Br)c3)ccnc2c1,inactive
14,Cc1ccc(C)n1-c1cccc(C(=O)O)c1,inactive
15,Cc1ccc(-c2cc(C(=O)Nc3cccnc3)c3ccccc3n2)o1,inactive
16,CCn1c(C)nc2cc(C(=O)N/N=C/c3ccc(O)c(O)c3O)ccc21,inactive
17,Cc1ccc(-c2n[nH]c(=S)n2-c2ccccc2)cc1,inactive
18,COc1ccc2nc(NC(=O)c3ccc(-c4cccc([N+](=O)[O-])c4)o3)sc2c1,inactive
19,O=[N+]([O-])c1cccc(S(=O)(=O)NCC2CCCO2)c1 (centres undefined),inactive
20,Cc1ccc(OCc2cn3cccnc3n2)cc1,inactive
21,O=C(NCc1ccco1)C1CC2CCC1C2 (centres undefined),inactive
22,COc1ccc(Cc2c(O)nc(SC)n(C(C)=O)c2=O)cc1,inactive
